Measurements taken from patent EP4660182A1, “NAV1.7- AND/OR NAV1.8-INHIBITING ARYL PYRIDINE COMPOUNDS, PROCESSES FOR THE PREPARATION THEREOF, COMPOSITIONS, USES, METHODS FOR TREATMENT USING SAME, AND KITS” (Eurofarma Laboratórios S.A., priority 2023, dated 2024).

Experiments:
[1] = molecular target: T1, human sodium channels Nav 1.8 (Homo sapiens, UniProt Q9Y5Y9); assay: Automated whole-cell voltage-clamp (ScreenPatch 384P) sodium current block, Nav 1.8; format: cell-based; settings: CHO cells stably expressing human Nav 1.8; inactivation step -40 mV 8 s, test step 10 mV (TP1A); eight concentrations; exposure at least five minutes; room temperature; read-out: Nav1.8 IC50
T1 construct: expressed in transfected cells
T1 sequence (Q9Y5Y9 whole entry): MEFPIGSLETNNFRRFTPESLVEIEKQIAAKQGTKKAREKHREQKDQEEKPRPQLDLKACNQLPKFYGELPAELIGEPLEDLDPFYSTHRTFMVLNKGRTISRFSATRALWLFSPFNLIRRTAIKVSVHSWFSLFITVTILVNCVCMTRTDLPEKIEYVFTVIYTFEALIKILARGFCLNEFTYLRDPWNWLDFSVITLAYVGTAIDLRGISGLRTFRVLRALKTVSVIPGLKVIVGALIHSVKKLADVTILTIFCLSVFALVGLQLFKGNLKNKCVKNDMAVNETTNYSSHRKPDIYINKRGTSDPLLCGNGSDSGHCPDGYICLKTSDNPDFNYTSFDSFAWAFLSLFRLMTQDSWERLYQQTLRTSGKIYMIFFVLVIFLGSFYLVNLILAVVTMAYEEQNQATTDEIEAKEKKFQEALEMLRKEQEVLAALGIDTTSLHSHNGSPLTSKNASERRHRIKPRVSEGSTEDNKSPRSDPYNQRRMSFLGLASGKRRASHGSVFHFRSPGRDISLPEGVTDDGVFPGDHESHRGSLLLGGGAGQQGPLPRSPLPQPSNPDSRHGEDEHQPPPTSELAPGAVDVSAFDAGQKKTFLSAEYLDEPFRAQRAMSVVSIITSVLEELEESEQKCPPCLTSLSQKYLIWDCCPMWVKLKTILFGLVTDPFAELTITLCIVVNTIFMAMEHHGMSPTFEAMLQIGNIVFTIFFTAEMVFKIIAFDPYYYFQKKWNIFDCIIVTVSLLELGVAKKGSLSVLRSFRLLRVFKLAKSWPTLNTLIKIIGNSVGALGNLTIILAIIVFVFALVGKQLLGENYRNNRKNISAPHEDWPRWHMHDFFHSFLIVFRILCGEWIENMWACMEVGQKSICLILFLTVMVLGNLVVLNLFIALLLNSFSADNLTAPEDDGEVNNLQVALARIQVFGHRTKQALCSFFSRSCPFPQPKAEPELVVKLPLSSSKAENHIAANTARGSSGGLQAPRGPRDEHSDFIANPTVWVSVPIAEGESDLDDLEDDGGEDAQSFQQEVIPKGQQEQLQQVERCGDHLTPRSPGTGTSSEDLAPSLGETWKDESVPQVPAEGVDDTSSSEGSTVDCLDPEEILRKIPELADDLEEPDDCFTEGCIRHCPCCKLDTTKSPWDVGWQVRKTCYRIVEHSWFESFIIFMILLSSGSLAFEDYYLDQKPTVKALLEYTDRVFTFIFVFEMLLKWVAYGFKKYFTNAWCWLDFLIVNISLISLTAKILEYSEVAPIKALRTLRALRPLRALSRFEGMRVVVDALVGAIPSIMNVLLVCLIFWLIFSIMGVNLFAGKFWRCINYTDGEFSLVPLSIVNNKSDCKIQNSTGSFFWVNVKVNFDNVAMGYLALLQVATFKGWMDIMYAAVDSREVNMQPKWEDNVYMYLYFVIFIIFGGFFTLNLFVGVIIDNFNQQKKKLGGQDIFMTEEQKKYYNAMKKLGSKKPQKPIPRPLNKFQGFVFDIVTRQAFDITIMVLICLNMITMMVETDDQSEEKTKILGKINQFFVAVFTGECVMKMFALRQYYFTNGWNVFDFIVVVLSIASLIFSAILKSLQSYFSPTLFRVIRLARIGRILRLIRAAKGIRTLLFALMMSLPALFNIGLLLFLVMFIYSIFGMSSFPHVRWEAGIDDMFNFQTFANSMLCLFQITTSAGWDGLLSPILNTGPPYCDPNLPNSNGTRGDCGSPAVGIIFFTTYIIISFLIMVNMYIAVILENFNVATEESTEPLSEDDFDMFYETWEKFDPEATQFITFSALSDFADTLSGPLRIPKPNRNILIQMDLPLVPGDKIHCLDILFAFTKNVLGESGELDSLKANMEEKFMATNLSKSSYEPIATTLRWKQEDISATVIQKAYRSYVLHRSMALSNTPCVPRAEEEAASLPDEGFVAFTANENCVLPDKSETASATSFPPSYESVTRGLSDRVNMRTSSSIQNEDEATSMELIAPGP
Description: (§1) Biological assays were performed on Chinese hamster ovary (CHO) cells that express human sodium channels Nav 1.8 or Nav 1.7 in a stable manner.
(§2) The experimental protocol voltage-clamp using the whole cell configuration was established on the automated ScreenPatch® 384P platform (SP384PE, Nanion Technologies, Livingston, NJ) and the results were recorded with a Nanion 384-well Patch Clamp chip (NPC) (Nanion Technologies, Livingston, NJ).
(§3) Formula I compounds were diluted in eight concentrations in the extracellular solution composed of saline solution, buffered with HEPES (mM): NaCl, 137; KCl, 4; CaCl2, 3,8; MgCl2, 1; HEPES, 10; Glucose, 10; pH 7.4. The […], 50; CsF, 90; MgCl2, 5; EGTA, 5; HEPES, 10; pH 7.2. The duration of exposure of each compound with cells expressing Nav 1.7 or Nav 1.8 was at least five minutes and the assays were performed at room temperature.
(§4) The measurements of the sodium currents of Nav 1.8 and Nav 1.7 were obtained using the voltage protocol described below.
(§5) A holding voltage of -100 mV was established followed by an inactivation voltage step at -40 mV for 8 seconds, followed by a step of -100 mV for 20 ms, followed by a 20 ms step for 10 mV for Nav 1.8 or 0 mV for Nav 1.7 (TP1A) before returning to the holding voltage of -100 mV.
(§6) The protocol was repeated at a frequency of 0.05 Hz and the amplitude of the current was quantified throughout the recording of the TP1A phase. The variation in the amplitude of the peak current was evaluated according to the formula described below, after exposing the cells expressing the channels to each concentration of the different compounds: % Block = (1−(ITP1A,molecule/ITP1A,basal)×100%, [formula] wherein ITP1A,basal and ITP1A,molecule represent the peaks of sodium current input into TP1A before exposure to the compound and in the presence of the compound, respectively.
(§7) Data were obtained by nonlinear regression (nonlinear least squares) with XLfit for Excel (Microsoft, Redmond, WA).
(§8) The compounds were tested in at least one assay to obtain the value of CI50. For compounds that were tested in two or more assays, the results are described as the means of the CI50 values.

[2] = molecular target: T2, human sodium channels Nav 1.7 (Homo sapiens, UniProt Q15858); assay: Automated whole-cell voltage-clamp (ScreenPatch 384P) sodium current block, Nav 1.7; format: cell-based; settings: CHO cells stably expressing human Nav 1.7; inactivation step -40 mV 8 s, test step 0 mV (TP1A); eight concentrations; exposure at least five minutes; room temperature; read-out: Nav1.7 IC50
T2 construct: expressed in transfected cells
T2 sequence (Q15858 whole entry): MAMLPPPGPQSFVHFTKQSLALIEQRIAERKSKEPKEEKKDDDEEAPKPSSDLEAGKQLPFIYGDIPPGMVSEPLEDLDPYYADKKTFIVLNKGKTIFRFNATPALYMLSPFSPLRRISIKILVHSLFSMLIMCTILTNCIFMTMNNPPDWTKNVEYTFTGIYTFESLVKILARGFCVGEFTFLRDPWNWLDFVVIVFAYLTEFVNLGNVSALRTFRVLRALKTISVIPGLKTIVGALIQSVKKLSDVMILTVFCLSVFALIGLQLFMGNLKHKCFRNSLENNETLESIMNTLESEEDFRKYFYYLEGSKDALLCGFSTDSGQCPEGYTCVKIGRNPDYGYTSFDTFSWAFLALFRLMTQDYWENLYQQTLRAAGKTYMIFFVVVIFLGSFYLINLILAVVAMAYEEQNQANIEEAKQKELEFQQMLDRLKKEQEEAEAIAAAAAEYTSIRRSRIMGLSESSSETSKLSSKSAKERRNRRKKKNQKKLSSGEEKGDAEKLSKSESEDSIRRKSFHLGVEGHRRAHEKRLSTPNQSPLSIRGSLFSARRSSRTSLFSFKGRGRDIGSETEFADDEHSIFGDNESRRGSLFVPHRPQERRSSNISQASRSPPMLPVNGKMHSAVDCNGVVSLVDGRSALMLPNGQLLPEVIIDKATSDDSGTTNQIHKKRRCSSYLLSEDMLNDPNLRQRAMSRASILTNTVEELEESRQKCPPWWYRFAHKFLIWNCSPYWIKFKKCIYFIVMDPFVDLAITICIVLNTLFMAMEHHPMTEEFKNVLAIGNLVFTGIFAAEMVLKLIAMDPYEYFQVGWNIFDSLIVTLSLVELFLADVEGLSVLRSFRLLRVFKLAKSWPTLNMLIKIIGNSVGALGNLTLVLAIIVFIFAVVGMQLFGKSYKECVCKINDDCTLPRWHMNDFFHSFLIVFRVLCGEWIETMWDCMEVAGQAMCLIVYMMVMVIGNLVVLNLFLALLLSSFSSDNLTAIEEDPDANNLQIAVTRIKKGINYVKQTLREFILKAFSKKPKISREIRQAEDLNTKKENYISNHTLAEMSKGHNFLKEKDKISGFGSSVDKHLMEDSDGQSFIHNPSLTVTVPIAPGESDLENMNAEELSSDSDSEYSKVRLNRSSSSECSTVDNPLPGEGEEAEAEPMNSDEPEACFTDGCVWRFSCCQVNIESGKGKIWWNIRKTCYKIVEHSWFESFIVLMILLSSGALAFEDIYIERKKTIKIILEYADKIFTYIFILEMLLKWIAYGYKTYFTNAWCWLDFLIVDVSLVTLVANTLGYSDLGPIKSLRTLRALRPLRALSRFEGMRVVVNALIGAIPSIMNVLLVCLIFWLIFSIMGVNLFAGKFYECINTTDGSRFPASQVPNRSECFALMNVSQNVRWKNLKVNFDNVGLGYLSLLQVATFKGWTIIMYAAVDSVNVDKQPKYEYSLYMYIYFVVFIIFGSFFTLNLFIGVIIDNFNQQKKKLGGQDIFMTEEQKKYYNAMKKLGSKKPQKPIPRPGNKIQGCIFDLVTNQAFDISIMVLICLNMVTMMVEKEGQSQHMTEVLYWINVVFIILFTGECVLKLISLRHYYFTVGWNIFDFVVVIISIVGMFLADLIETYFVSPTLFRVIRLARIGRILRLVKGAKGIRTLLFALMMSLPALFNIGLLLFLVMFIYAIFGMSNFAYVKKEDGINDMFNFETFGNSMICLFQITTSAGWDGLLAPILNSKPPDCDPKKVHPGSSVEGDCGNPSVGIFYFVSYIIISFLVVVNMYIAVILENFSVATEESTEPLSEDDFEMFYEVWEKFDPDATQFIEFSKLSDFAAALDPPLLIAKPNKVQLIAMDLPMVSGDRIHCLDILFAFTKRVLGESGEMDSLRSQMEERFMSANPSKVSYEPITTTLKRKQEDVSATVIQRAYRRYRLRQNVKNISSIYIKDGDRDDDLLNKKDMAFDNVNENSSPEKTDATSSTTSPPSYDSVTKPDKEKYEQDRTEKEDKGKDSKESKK
Description: as §1, §2, §3, §4, §5, §6, §7, §8

Structure (SMILES)	IC50 [1] [nM]	IC50 [2] [nM]
CCOc1ccc(-c2nc(C(=O)N/N=C/c3cc(OC)ccc3F)cn(C)c2=O)cn1 [Compound 76, (E)-6-(6-ethoxypyridine-3-yl)-N'-(2-fluoro-5-methoxybenzylidene)-4-methyl-5-oxo-4,5-dihydropyrazine-2-carbohydrazide]	> 1000	> 1000
COc1ccc(F)c(/C=N/NC(=O)c2cncc(-c3ccc(OC(F)(F)F)nc3)n2)c1 [Compound 83, (E)-N'-(2-fluoro-5-methoxybenzylidene)-6-(6-(trifluoromethoxy)pyridine-3-yl)pyrazine-2-carbohydrazide]	< 500	> 1000
CCOc1ccc(-c2cncc(C(=O)N/N=C/c3cc(C(C)O)cnc3F)n2)cn1 (stereo not shown) [Compound 25, (E)-6-(6-ethoxypyridine-3-yl)-N'-((2-fluoro-5-(1-hydroxyethyl)pyridine-3-yl)methylene) pyrazine-2-carbohydrazide]	500 to 1000	> 1000
CC(O)c1ccnc(/C=N/NC(=O)c2cncc(-c3ccc(OC(F)F)nc3)n2)c1 (stereo not shown) [Compound 114, (E)-6-(6-(difluoromethoxy)pyridine-3-yl)-N'-((4-(1-hydroxyethyl)pyridine-2-yl)methylene)pyrazine-2-carbohydrazide]	> 1000	> 1000
CCOc1ccc(-c2cncc(C(=O)N/N=C/c3cncc(OC)c3)n2)cn1 [Compound 18, (E)-6-(6-ethoxypyridine-3-yl)-N'-((5-methoxypyridine-3-yl)methylene)pyrazine-2-carbohydrazide]	< 500	> 1000
CCOc1ccc(-c2cncc(C(=O)N/N=C/c3nccn3CC)n2)cn1 [Compound 60, (E)-6-(6-ethoxypyridine-3-yl)-N'-((1-ethyl-1H-imidazole-2-yl)methylene)pyrazine-2-carbohydrazide]	500 to 1000	> 1000
CCOc1ccc(-c2cncc(C(=O)N/N=C/c3ocnc3C)n2)cn1 [Compound 61, (E)-6-(6-ethoxypyridine-3-yl)-N'-((4-methyloxazole-5-yl)methylene)pyrazine-2-carbohydrazide]	> 1000	> 1000
[2H]C([2H])([2H])Oc1cnc(F)c(/C=N/NC(=O)c2cncc(-c3ccc(OCC)nc3)n2)c1 [Compound 171, (E)-6-(6-ethoxypyridine-3-yl)-N'-((2-fluoro-5-(methoxy-d3)pyridine-3-yl)methylene) pyrazine-2-carbohydrazide]	< 500	> 1000
CCOc1ccc(-c2ccnc(C(=O)N/N=C/c3cc(OC)cnc3F)n2)cn1 [Compound 73, (E)-4-(6-ethoxypyridine-3-yl)-N'-((2-fluoro-5-methoxypyridine-3-yl)methylene) pyrimidine-2-carbohydrazide]	500 to 1000	> 1000
CNS(=O)(=O)c1ccc(-c2cncc(C(=O)N/N=C/c3cc(OC)ccc3F)n2)cn1 [Compound 134, (E)-5-(6-(2-(2-fluoro-5-methoxybenzylidene)hydrazine-1-carbonyl)pyrazine-2-yl)-N-methylpyridine-2-sulfonamide]	> 1000	> 1000
[2H]C([2H])([2H])COc1ccc(-c2cncc(C(=O)N/N=C/c3cc(OC)cnc3F)n2)cn1 [Compound 168, (E)-6-(6-(ethoxy-2,2,2-d3)pyridine-3-yl)-N'-((2-fluoro-5-methoxypyridine-3-yl)methylene)pyrazine-2-carbohydrazide]	< 500	> 1000
CCOc1ccc(-c2cncc(C(=O)N/N=C/c3cncc(C(C)O)c3)n2)cn1 (stereo not shown) [Compound 24, (E)-6-(6-ethoxypyridine-3-yl)-N'-((5-(1-hydroxyethyl)pyridine-3-yl)methylene)pyrazine-2-carbohydrazide]	> 1000	> 1000
COc1cnc(F)c(/C=N/N(C)C(=O)c2cncc(-c3ccc(OC(F)F)nc3)n2)c1 [Compound 176, (E)-6-(6-(difluoromethoxy)pyridine-3-yl)-N'-((2-fluoro-5-methoxypyridine-3-yl)methylene)-N-methylpyrazine-2-carbohydrazide]	> 1000	> 1000
COc1cnc(F)c(/C=N/NC(=O)c2cncc(-c3ccc(OCCC4CNC4)nc3)n2)c1 [Compound 144, (E)-6-(6-(2-(azetidine-3-yl)ethoxy)pyridine-3-yl)-N'-((2-fluoro-5-methoxypyridine-3-yl)methylene)pyrazine-2-carbohydrazide]	> 1000	> 1000
CCOc1ccc(-c2cnc(N)c(C(=O)N/N=C/c3cc(OC)ccc3F)n2)cn1 [Compound 64, (E)-3-amino-6-(6-ethoxypyridine-3-yl)-N'-(2-fluoro-5-methoxybenzylidene) pyrazine-2-carbohydrazide]	500 to 1000	> 1000
COc1ccc(O)c(/C=N/NC(=O)c2cncc(-c3ccc(OC(F)F)nc3)n2)c1 [Compound 120, (E)-6-(6-(difluoromethoxy)pyridine-3-yl)-N'-(2-hydroxy-5-methoxybenzylidene)pyrazine-2-carbohydrazide]	> 1000	> 1000
[2H]C([2H])([2H])COc1ccc(-c2cncc(C(=O)N/N=C/c3cc(OC([2H])([2H])[2H])cnc3F)n2)cn1 [Compound 173, (E)-6-(6-(ethoxy-2,2,2-d3)pyridine-3-yl)-N'-((2-fluoro-5-(methoxy-d3)pyridine-3-yl)methylene)pyrazine-2-carbohydrazide]	< 500	> 1000
COc1cnc(F)c(/C=N/NC(=O)c2cncc(-c3ccc(OC4CNC4)nc3)n2)c1 [Compound 142, (E)-6-(6-(azetidin-3-yloxy)pyridine-3-yl)-N'-((2-fluoro-5-methoxypyridine-3-yl)methylene)pyrazine-2-carbohydrazide]	> 1000	> 1000
COc1cc(/C=N/NC(=O)c2cncc(-c3ccc(OC(F)F)nc3)n2)cc(O)n1 [Compound 118, (E)-6-(6-(difluoromethoxy)pyridine-3-yl)-N'-((2-hydroxy-6-methoxypyridine-4-yl)methylene)pyrazine-2-carbohydrazide]	> 1000	> 1000
COc1ccc(F)c(/C=N/NC(=O)c2cncc(-c3ccc(S(N)(=O)=O)nc3)n2)c1 [Compound 133, (E)-5-(6-(2-(2-fluoro-5-methoxybenzylidene)hydrazine-1-carbonyl)pyrazine-2-yl)pyridine-2-sulfonamide]	> 1000	> 1000
CC[S+]([O-])c1ccc(-c2cncc(C(=O)N/N=C/c3cc(OC)ccc3F)n2)cn1 (stereo not shown) [Compound 132, (E)-6-(6-(ethylsulfinyl)pyridine-3-yl)-N'-(2-fluoro-5-methoxybenzylidene)pyrazine-2-carbohydrazide]	> 1000	> 1000
CCOc1ccc(-c2nc(C(=O)N/N=C/c3cc(OC)ccc3F)cnc2N)cn1 [Compound 63, (E)-5-amino-6-(6-ethoxypyridine-3-yl)-N'-(2-fluoro-5-methoxybenzylidene) pyrazine-2-carbohydrazide]	500 to 1000	> 1000
COc1ccc(F)c(/C=N/NC(=O)c2cncc(-c3ccc([S+](C)[O-])nc3)n2)c1 (stereo not shown) [Compound 131, (E)-N'-(2-fluoro-5-methoxybenzylidene)-6-(6-(methylsulfinyl)pyridine-3-yl)pyrazine-2-carbohydrazide]	500 to 1000	> 1000
CC(C)Oc1ccc(F)c(/C=N/NC(=O)c2cncc(-c3ccc(OC4CC4)nc3)n2)c1 [Compound 79, (E)-6-(6-cyclopropoxypyridine-3-yl)-N'-(2-fluoro-5-isopropoxybenzylidene) pyrazine-2-carbohydrazide]	< 500	< 500
CCOc1ccc(-c2cncc(C(=O)N/N=C/c3nc(OC)ccc3F)n2)cn1 [Compound 15, (E)-6-(6-ethoxypyridine-3-yl)-N'-((3-fluoro-6-methoxypyridine-2-yl)methylene)pyrazine-2-carbohydrazide]	< 500	> 1000
CC(O)c1cncc(/C=N/NC(=O)c2cncc(-c3ccc(OC(F)F)nc3)n2)c1 (stereo not shown) [Compound 111, (E)-6-(6-(difluoromethoxy)pyridine-3-yl)-N'-((5-(1-hydroxyethyl)pyridine-3-yl)methylene)pyrazine-2-carbohydrazide]	> 1000	> 1000
